From patent US11214593B2, “Anticancer peptides and uses thereof” (SUIGENERIS FARMACOSMETICS, S.L., priority 2017, dated 2022) come the findings set out here.

The test system of series [1] is human pancreatic tumor cell line BXPC3. Nature of the series: In vitro proliferation assay, cancer growth-inhibitory activity (Assay 1, crystal violet staining). It is filed as cell-based. The settings on record: BXPC3 cells, peptide 20 μM final concentration, 72 h, FIG. 1-A. The source says:
(§1) The BXPC3 cell line from primary adenocarcinoma of human pancreas was provided by the Biomedical Research Institute (IRB) of Barcelona, and human umbilical cord primary endothelial cells (HUVEC) were obtained directly by the investigator and stored in liquid nitrogen in the laboratory. BXPC3 cells were maintained in RPMI-1640 culture medium (Gibco) supplemented with 10% fetal bovine serum and antibiotics. HUVEC cells were maintained in M199 culture medium (Gibco) supplemented with 20% fetal bovine serum, endothelial cell growth supplement (ECGS), Heparin (Hep) and antibiotics. Cultures were maintained in the cell incubator in a humid atmosphere at 37° C. containing 5% CO2.
(§2) The different peptides to be tested were easily dissolved in DMSO at a concentration of 50 mM and subsequently a 5 mM intermediate dilution was prepared in Dulbecco's PBS which was subjected to two short cycles of sonication, which retendered the peptides completely soluble. […]
(§3) Assays with the different peptides were performed following the protocol explained below. […] Once resuspended in culture medium, they were counted in Newbauer's chamber after a 1:1 dilution with trypan blue. […]
The optical density values per well were obtained by a Biotek Synergy™2 multi-detection microplate reader, using a 590 nm filter and by scanning reading, obtaining the mean values per well. […]

For series [2], the system named is human umbilical cord primary endothelial cells (HUVEC). Nature of the series: In vitro proliferation assay to test toxicity (Assay 2, crystal violet staining). The series is classed as cell-based. The settings on record: 10 μM up to 40 μM final concentration, 72 h, FIG. 2.
Text: as §1, §2, §3
The optical density values per well were obtained by a Biotek Synergy™2 multi-detection microplate reader, using a 590 nm filter and by scanning reading, obtaining the mean values per well.

No end group written: not given here.

For “CH3-C(O)-CFEVSKY-NH2 (Ac-CFEVSKY-NH2) [Peptide P1B, variant of the P1C peptide wherein the isoleucine is substituted by a valine]”, in series [1], the “inhibitory capacity on cancer cell growth (in words)” value is listed as “remarkable inhibitory capacity”.

Take “Ac-CFEISKY-NH2 [Peptide P1C, CH3-C(O)-CFEISKY-NH2]”: in series [2], the “effect on the growth of normal non-transformed cells (toxicity)” value was “did not affect the growth”.

“CFEISKY-NH2 [Peptide P1A, variant of the P1C peptide wherein the N-terminal end is free and the C-terminal end is amidated]”: the “inhibitory capacity on cancer cell growth (in words)” value in series [1] is “remarkable inhibitory capacity”.
